Source: patent US20250333421A1, “PYRIDAZINES OR 1,2,4-TRIAZINES SUBSTITUTED BY SPIROCYCLIC AMINES” (Janssen Pharmaceutica NV, priority 2021, published 2025)

Assays:
MOLM14 cells = assay: Proliferation assay (spheroid assay) in MOLM14; assay type: cell-based; settings: Homo sapiens, MOLM-14, 192 h; MOLM14 (MLL-AF9), 8 days, confluence as measure of spheroid size; read-out: spheroid assay_OneTime MOLM14 IC50
Procedure: (§1) The anti-proliferative effect of menin/MLL protein/protein interaction inhibitor test compounds was assessed in human leukemia cell lines. The cell line MOLM14 harbors a MLL translocation and expresses the MLL fusion proteins MLL-AF9, respectively, as well as the wildtype protein from the second allele. […] KO-52 was used as a control cell line containing two MLL (KMT2A) wildtype alleles in order to exclude compounds that display general cytotoxic effects.
MOLM14 cells were cultured in RPMI-1640 (Sigma Aldrich) supplemented with 10% heat-inactivated fetal bovine serum (HyClone), 2 mM L-glutamine (Sigma Aldrich) and 50 µg/ml gentamycin (Gibco). KO-52 cell lines were propagated in alpha-MEM (Sigma Aldrich) supplemented with 20% heat-inactivated fetal bovine serum (HyClone), 2 mM L-glutamine (Sigma Aldrich) and 50 µg/ml gentamycin (Gibco).
In order to assess the anti-proliferative effects, 200 MOLM14 cells, or 300 KO-52 cells were seeded in 200 μl media per well in 96-well round bottom, ultra-low attachment plates (Costar, catalogue number 7007). Cell seeding numbers were chosen based on growth curves to ensure linear growth throughout the experiment. Test compounds were added at different concentrations and the DMSO content was normalized to 0.3%. Cells were incubated for 8 days at 37° C. and 5% CO2. Spheroid like growth was measured in real-time by live-cell imaging (IncuCyteZOOM, Essenbio, 4× objective) acquiring images at day 8. Confluence (%) as a measure of spheroid size was determined using an integrated analysis tool.
In order to determine the effect of the test compounds over time, the confluence in each well as a measure of spheroid size, was calculated. Confluence of the highest dose of a reference compound was used as baseline for the LC (Low control) and the confluence of DMSO treated cells was used as 0% cytotoxicity (High Control, HC).
Absolute IC50 values were calculated as percent change in confluence as follows:
LC=Low Control: cells treated with e.g. 1 μM of the cytotoxic agent staurosporin, or e.g. cells treated with a high concentration of an alternative reference compound
GraphPad Prism (version 7.00) was used to calculate the IC50. Dose-response equation was used for the plot of % Effect vs Log10 compound concentration with a variable slope and fixing the maximum to 100% and the minimum to 0%.

KO-52 cells = assay: Proliferation assay (spheroid assay) in KO-52 control cell line; assay type: cell-based; settings: Homo sapiens, 192 h; KO-52 (MLL wildtype control), 8 days, confluence as measure of spheroid size; read-out: spheroid assay_OneTime KO-52 IC50
Procedure: as §1
MOLM14 cells were cultured in RPMI-1640 (Sigma Aldrich) supplemented with 10% heat-inactivated fetal bovine serum (HyClone), 2 mM L-glutamine (Sigma Aldrich) and 50 µg/ml gentamycin (Gibco). […]
In order to assess the anti-proliferative effects, 200 MOLM14 cells, or 300 KO-52 cells were seeded in 200 μl media per well in 96-well round bottom, ultra-low attachment plates (Costar, catalogue number 7007). […] Spheroid like growth was measured in real-time by live-cell imaging (IncuCyteZOOM, Essenbio, 4× objective) acquiring images at day 8. Confluence (%) as a measure of spheroid size was determined using an integrated analysis tool.
In order to determine the effect of the test compounds over time, the confluence in each well as a measure of spheroid size, was calculated. […]
Absolute IC50 values were calculated as percent change in confluence as follows: […]

Menin/MLL = biological target: T1, Menin/MLL (Homo sapiens, UniProt O00255, T541A); assay: Menin/MLL homogenous time-resolved fluorescence (HTRF) assay; assay type: binding; settings: 30 min incubation of test compound with terbium chelate-labeled menin; FITC-MBM1 peptide
T1 construct: Menin (a.a 1-610-6xhis tag)
T1 sequence (O00255 with tags, fused parts or gaps T541A): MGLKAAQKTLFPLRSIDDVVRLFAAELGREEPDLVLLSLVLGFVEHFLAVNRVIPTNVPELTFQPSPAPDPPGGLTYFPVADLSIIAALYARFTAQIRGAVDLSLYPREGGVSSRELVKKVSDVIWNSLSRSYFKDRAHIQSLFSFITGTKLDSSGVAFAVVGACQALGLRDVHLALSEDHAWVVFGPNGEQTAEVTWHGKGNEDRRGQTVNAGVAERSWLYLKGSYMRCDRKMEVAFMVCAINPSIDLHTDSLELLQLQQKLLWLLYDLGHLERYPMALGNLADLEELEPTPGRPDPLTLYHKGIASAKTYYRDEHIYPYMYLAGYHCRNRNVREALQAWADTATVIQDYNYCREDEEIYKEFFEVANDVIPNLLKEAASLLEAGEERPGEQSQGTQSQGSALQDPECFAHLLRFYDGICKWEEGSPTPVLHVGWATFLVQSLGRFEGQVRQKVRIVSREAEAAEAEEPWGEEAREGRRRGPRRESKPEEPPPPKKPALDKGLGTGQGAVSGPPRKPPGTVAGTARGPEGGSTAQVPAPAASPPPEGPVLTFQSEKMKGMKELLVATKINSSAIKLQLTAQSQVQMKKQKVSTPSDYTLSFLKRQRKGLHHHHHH
Procedure: 1) Menin/MLL homogenous time-resolved fluorescence (HTRF) assay
To an untreated, white 384-well microtiter plate was added 40 nL 200X test compound in DMSO and 4 μL 2X terbium chelate-labeled menin (vide infra for preparation) in assay buffer (40 mM Tris-HCl, pH 7.5, 50 mM NaCl, 1 mM DTT (dithiothreitol) and 0.05% Pluronic F-127). After incubation of test compound and terbium chelate-labeled menin for 30 min at ambient temperature, 4 μL 2X FITC-MBM1 peptide (FITC-β-alanine-SARWRFPARPGT-NH2 (SEQ ID NO: 2)) (“FITC” means fluorescein isothiocyanate) in assay buffer was added, the microtiter plate centrifuged at 1000 rpm for 1 min and the assay mixtures incubated for 15 min at ambient temperature. The relative amount of menin FITC--MBM1 complex present in an assay mixture is determined by measuring the homogenous time-resolved fluorescence (HTRF) of the terbium/FITC donor/acceptor fluorphore pair using an EnVision microplate reader (ex. 337 nm/terbium em. 490 nm/FITC em. 520 nm) at ambient temperature. The degree of fluorescence resonance energy transfer (the HTRF value) is expressed as the ratio of the fluorescence emission intensities of the FITC and terbium fluorophores (F^em 520 nm/F^em 490 nm). The final concentrations of reagents in the binding assay are 200 pM terbium chelate-labeled menin, 75 nM FITC-MBM1 peptide and 0.5% DMSO in assay buffer. Dose-response titrations of test compounds are conducted using an 11 point, four-fold serial dilution scheme, starting typically at 10 μM.
Compound potencies were determined by first calculating % inhibition at each compound concentration according to equation 1: […]
Where LC and HC are the HTRF values of the assay in the presence or absence of a saturating concentration of a compound that competes with FITC-MBM1 for binding to menin, and HTRF^compound is the measured HTRF value in the presence of the test compound. HC and LC HTRF values represent an average of at least 10 replicates per plate.
Where Bottom and Top are the lower and upper asymptotes of the dose-response curve, respectively, IC50 is the concentration of compound that yields 50% inhibition of signal and h is the Hill coefficient. IC50 values below 0.1 nM in the HTRF assay were reported as 0.1 nM in the Table below (detection limit).
Preparation of Terbium cryptate labeling of Menin: Menin (a.a 1-610-6xhis tag, 2.3 mg/mL in 20 mM Hepes (2-[4-(2-Hydroxyethyl)-1-piperazinyl]ethane sulfonic acid), 80 mM NaCl, 5 mM DTT (Dithiothreitol), pH 7.5) was labeled with terbium cryptate as follows. 200 μg of Menin was buffer exchanged into lx Hepes buffer. 6.67 μM Menin was incubated with 8-fold molar excess NHS (N-hydroxysuccinimide)-terbium cryptate for 40 minutes at room temperature. Half of the labeled protein was purified away from free label by running the reaction over a NAP5 column with elution buffer (0.1M Hepes, pH 7+0.1% BSA (bovine serum albumin)). The other half was eluted with 0.1 M phosphate buffered saline (PBS), pH7. 400 μl of eluent was collected for each, aliquoted and frozen at −80° C. The final concentration of terbium-labeled Menin protein was 115 μg/mL in Hepes buffer and 85 μg/mL in PBS buffer, respectively.

## CCN(C(=O)c1cc(F)ccc1Oc1nncnc1N1CCC2(C1)CN(C(CCCN(C)CCSC)C(C)C)C2)C(C)C (single isomer, unassigned) [Compound 1]
MOLM14 cells
  IC50: 50 nM
KO-52 cells
  IC50: 11900 nM

## CCN(C(=O)c1cc(F)ccc1Oc1nncnc1N1CCC2(C1)CN(C(CCCNCCSC)C(C)C)C2)C(C)C (single isomer, unassigned) [Compound 3]
MOLM14 cells
  IC50: 5 nM

## CCN(C(=O)c1cc(F)ccc1Oc1nncnc1N1CCC2(C1)CN(C(CCCNCCOC(F)(F)F)C(C)C)C2)C(C)C (single isomer, unassigned) [Compound 4]
MOLM14 cells
  IC50: 21 nM
Menin/MLL
  IC50: 0.208 nM

## CCN(C(=O)c1cc(F)ccc1Oc1nncnc1N1CCC2(C1)CN(C(CCCN(C)CCOCCN)C(C)C)C2)C(C)C (single isomer, unassigned) [Compound 5]
MOLM14 cells
  IC50: 220 nM
Menin/MLL
  IC50: 0.11 nM

## CCN(C(=O)c1cc(F)ccc1Oc1nncnc1N1CCC2(C1)CN(C(CCCN(C)CCOCCCCN)C(C)C)C2)C(C)C (single isomer, unassigned) [Compound 6]
MOLM14 cells
  IC50: 100 nM

## CCN(C(=O)c1cc(F)ccc1Oc1nncnc1N1CCC2(C1)CN(C(CCCNCCOC(F)F)C(C)C)C2)C(C)C (single isomer, unassigned) [Compound 7]
MOLM14 cells
  IC50: 7 nM
Menin/MLL
  IC50: 0.121 nM

## CCN(C(=O)c1cc(F)ccc1Oc1nncnc1N1CCC2(C1)CN(C(CCCN(C)CCOC(F)F)C(C)C)C2)C(C)C (single isomer, unassigned) [Compound 8]
MOLM14 cells
  IC50: 16 nM
Menin/MLL
  IC50: 0.182 nM

## COCCN(C)CCC[C@H](C(C)C)N1CC2(CCN(c3ncnnc3Oc3ccc(F)cc3C(=O)N(CCN)C(C)C)C2)C1 (single isomer, unassigned) [Compound 9]
MOLM14 cells
  IC50: 190 nM

## COCCN(C)CCC[C@H](C(C)C)N1CC2(CCN(c3ncnnc3Oc3ccc(F)cc3C(=O)N(CCCCN)C(C)C)C2)C1 (single isomer, unassigned) [Compound 10]
MOLM14 cells
  IC50: 460 nM

## C#CCN(C)CCCC(C(C)C)N1CC2(CCN(c3ncnnc3Oc3ccc(F)cc3C(=O)N(CC)C(C)C)C2)C1 (single isomer, unassigned) [Compound 11]
MOLM14 cells
  IC50: 60 nM

## C=CCN(C)CCCC(C(C)C)N1CC2(CCN(c3ncnnc3Oc3ccc(F)cc3C(=O)N(CC)C(C)C)C2)C1 (single isomer, unassigned) [Compound 12]
MOLM14 cells
  IC50: 29 nM

## CCN(C(=O)c1cc(F)ccc1Oc1nncnc1N1CCC2(C1)CN(C(CCCN(C)CCOC)C(C)(C)C)C2)C(C)C (single isomer, unassigned) [Compound 13a]
Menin/MLL
  IC50: 1.97 nM

## CCN(C(=O)c1cc(F)ccc1Oc1nncnc1N1CCC2(C1)CN(C(CCCN(C)CCOC)C(C)(C)C)C2)C(C)C (single isomer, unassigned) [Compound 13b]
MOLM14 cells
  IC50: 21 nM

## CCN(CC(C)O)C(=O)c1cc(F)ccc1Oc1nncnc1N1CCC2(C1)CN(C(CCCN(C)CCOC)C(C)C)C2 (single isomer, unassigned) [Compound 16]
Menin/MLL
  IC50: 2.97 nM

## CCN(CC(C)O)C(=O)c1cc(F)ccc1Oc1nncnc1N1CCC2(C1)CN(C(CCCN(C)CCOC)C(C)C)C2 (single isomer, unassigned) [Compound 17]
Menin/MLL
  IC50: 79.3 nM

## CCN(C[C@@H](C)O)C(=O)c1cc(F)ccc1Oc1nncnc1N1CCC2(C1)CN([C@H](CCCN(C)CCOC)C(C)C)C2 (single isomer, unassigned) [Compound 18]
Menin/MLL
  IC50: 35.5 nM

## CCN(C(=O)c1cc(F)ccc1Oc1nncnc1N1CCC2(C1)CN([C@H](CCN(C)CCS(N)(=O)=O)C(C)C)C2)C(C)C (single isomer, unassigned) [Compound 20]
MOLM14 cells
  IC50: 430 nM
Menin/MLL
  IC50: 0.29 nM

## CC(C)N(C(=O)c1cc(F)ccc1Oc1nncnc1N1CCC2(C1)CN(C(CC(O)CN(C)C)C(C)(C)C)C2)C(C)C (single isomer, unassigned) [Compound 22]
Menin/MLL
  IC50: 18.2 nM

## CC(C)N(C(=O)c1cc(F)ccc1Oc1nncnc1N1CCC2(C1)CN(C(CC(O)CN(C)C)C(C)(C)C)C2)C(C)C (single isomer, unassigned) [Compound 23]
Menin/MLL
  IC50: 4.57 nM

## CCN(C)C[C@H](O)C[C@@H](N1CC2(CCN(c3ncnnc3Oc3ccc(F)cc3C(=O)N(CC)C(C)C)C2)C1)C(C)(C)C (single isomer, unassigned) [Compound 24]
Menin/MLL
  IC50: 35.5 nM

## CCN(C)C[C@@H](O)C[C@H](N1CC2(CCN(c3ncnnc3Oc3ccc(F)cc3C(=O)N(CC)C(C)C)C2)C1)C(C)(C)C (single isomer, unassigned) [Compound 25]
Menin/MLL
  IC50: 6.46 nM

## CCN(CC(C)O)C(=O)c1cc(F)ccc1Oc1nncnc1N1CCC2(C1)CN(C(CCCN(C)CCOC)C(C)C)C2 (stereo not drawn) [Compound 14]
MOLM14 cells
  IC50: > 940 nM
Menin/MLL
  IC50: 6.66 nM

## COCCN(C)CCC[C@H](C(C)C)N1CC2(CCN(c3ncnnc3Oc3ccc(F)cc3C(=O)N(CCNC(C)=O)C(C)C)C2)C1 [Compound 15]
MOLM14 cells
  IC50: 470 nM
Menin/MLL
  IC50: 0.331 nM

## COCCN(C)CCC[C@H](C(C)C)N1CC2(CCN(c3ncnnc3Oc3ccc(F)cc3C(=O)N(CCO)C(C)C)C2)C1 [Compound 19]
MOLM14 cells
  IC50: 32 nM

## CCN(C(=O)c1cc(F)cc(Br)c1Oc1nncnc1N1CCC2(C1)CN([C@H](CCCN(C)CCOC)C(C)C)C2)C(C)C [Compound 21]
Menin/MLL
  IC50: 13.7 nM
